The values below come from patent US20070161644A1, “Erastin analogs and uses thereof” (priority 2005, published 2007).

Structures are written as SMILES.

What all share (assay): Calcein AM viability assay, dilution series
Holding throughout (format): cell-based, human
What all share (conditions): 50% inhibition of calcein AM staining; 16-point two-fold dilution; two days

The test system of experiment [1] is TIP5/TERT/E6/E7/ST/RAS^V12 cells. From the text: (§1) Described here is work carried out to identify compounds with increased potency or activity in the presence of hTERT, LT, ST, E6, E7 or RAS^V12. Although the work described herein made use of hTERT, LT, ST, E6, E7 and RAS^V12 as transforming genes, future studies can make use of a wide variety of cancer-associated alleles using this methodology in order to define the signaling networks that involve many oncogenes and tumor suppressors. Engineered cell lines with these genetic elements were used to screen 23,550 compounds, including 20,000 compounds from a combinatorial library, 1,990 compounds from the National Cancer Institute diversity collection, and 1,540 biologically active known compounds that were selected and purchased by Applicant and formatted into a screenable collection. The primary screen tested (in quadruplicate) the effect of treating tumorigenic BJ-TERT/LT/ST/RAS^V12 engineered tumorigenic cells with each compound for 48 hours at a concentration of 4 μg/mL, corresponding to 10 μM for a compound with a molecular weight of 400, which is the approximate median molecular weight of the libraries. Cell viability was measured using the dye calcein acetoxymethyl ester (calcein AM) (Wang et al., 1993, Hum. Immunol. 37, 264-270), which is a non-fluorescent compound that freely diffuses into cells. In live cells, calcein AM is cleaved by intracellular esterases, forming the anionic fluorescent derivative calcein, which cannot diffuse out of live cells. […] The IC50 value (concentration required to inhibit 50% of the calcein AM signal) was calculated for each compound in each cell line (Table 1). […] Following is a more detailed analysis of these nine compounds.
(§2) Calcein acetoxylmethyl ester (AM) is a cell membrane-permeable, non-fluorescent compound that is cleaved by intracellular esterases to form the anionic, cell-impermeable, fluorescent compound calcein. Viable cells are stained by calcein because of the presence of intracellular esterases and because the intact plasma membrane prevents fluorescent calcein from leaking out of cells (Wang et al., 1993, supra). Cells were seeded in 384-well plates using a Zymark Sciclone ALH, treated with each compound in triplicate at 4 μg/mL in the primary screen for two days, washed with phosphate-buffered saline on a Packard Minitrak with a 384-well washer and incubated for four hours with 0.7 μg/mL calcein (Molecular Probes). Total fluorescence intensity in each well was recorded on a Packard Fusion platereader, and converted to a percent inhibition of signal by subtracting the instrument background and dividing by the average signal obtained when cells were not treated with any compound.
(§3) Compounds to be retested were purchased from manufacturers. Stocks were prepared in DMSO at a concentration of 1 mg/ml in 384-well polypropylene plates with a 16-point, two-fold dilution dose curve of each compound in a column, in duplicates. Column 1-2 and 23-24 were left empty for controls. Daughter retest plates were prepared from stock retest plate by diluting 66.6 fold in DMEM in 384-well deep-deep well plates (4.5 μl transfer into 300 μl). Cells were seeded at a density of 6000 per well in 40 μl, and 20 μl was added from a daughter retest plate. The plates were incubated for two days at 37° C. with 5% CO2.
(§4) Mean RFU (relative fluorescence units) for untreated cells was calculated by averaging columns 1, 2, and 23 (wells with cells but lacking compounds). The calcein background was calculated by averaging column 24 (wells with calcein, but lacking cells). Percentage inhibition of each well was calculated as [1−(RFU−calcein control)/(untreated cell−calcein control)*100]. Compounds causing at least 50% inhibition of calcein staining in the primary screen were tested for selectivity towards BJ-TERT/LT/ST/RAS^V12 engineered tumor cells by testing in BJ primary and BJ-TERT/LT/ST/RAS^V12 cells at a range of concentrations. Selective compounds were retested in all engineered cell lines.

Experiment [2] deals with BJ primary cells.
From the text: as §1, §2, §3, §4

For experiment [3], the system named is TIP5/TERT/LT cells.
From the text: as §1, §2, §3, §4

Experiment [4] relates to BJ-TERT/LT/ST cells.
From the text: as §1, §2, §3, §4

For experiment [5], the system named is TIP5/TERT/E6/E7 cells.
From the text: as §1, §2, §3, §4

In experiment [6] the test system is TIP5/TERT cells.
From the text: as §1, §2, §3, §4

Experiment [7] concerns TIP5/TERT/LT/ST/RAS^V12 cells.
From the text: as §1, §2, §3, §4

Experiment [8] concerns TIP5/TERT/E6/E7/ST cells.
From the text: as §1, §2, §3, §4

Experiment [9] has as its system BJ-TERT/LT/RAS^V12/ST cells.
From the text: as §1, §2, §3, §4

For experiment [10], the system named is BJ-TERT/LT/ST/RAS^V12 cells. On the procedure: Described here is work carried out to identify compounds with increased potency or activity in the presence of hTERT, LT, ST, E6, E7 or RAS^V12. Although the work described herein made use of hTERT, LT, ST, E6, E7 and RAS^V12 as transforming genes, future studies can make use of a wide variety of cancer-associated alleles using this methodology in order to define the signaling networks that involve many oncogenes and tumor suppressors. […] Cell viability was measured using the dye calcein acetoxymethyl ester (calcein AM) (Wang et al., 1993, Hum. Immunol. 37, 264-270), which is a non-fluorescent compound that freely diffuses into cells. […]
Calcein acetoxylmethyl ester (AM) is a cell membrane-permeable, non-fluorescent compound that is cleaved by intracellular esterases to form the anionic, cell-impermeable, fluorescent compound calcein. […] Total fluorescence intensity in each well was recorded on a Packard Fusion platereader, and converted to a percent inhibition of signal by subtracting the instrument background and dividing by the average signal obtained when cells were not treated with any compound. […]
Mean RFU (relative fluorescence units) for untreated cells was calculated by averaging columns 1, 2, and 23 (wells with cells but lacking compounds). The calcein background was calculated by averaging column 24 (wells with calcein, but lacking cells). […]

For `Cc1c2ccccc2c(CSC(=N)N)c2ccccc12.Cl` [NSC146109], the “IC50 TIP5-TERT/E6E7/ST/Ras^v12” value in [1] was 2.5 µg/mL. For the same compound, in experiment [2], the “IC50 BJ” value was more than 5 µg/mL. Further, the “IC50 TIP5-TERT/LT” value in [3] is more than 5 µg/mL. For the same compound, in experiment [4], the “IC50 BJ-TERT/LT/ST” value was 2.5 µg/mL. For the same compound, the “IC50 TIP5-TERT/E6E7” value in [5] is 2.5 µg/mL. Further, the “IC50 TIP5-TERT” value in experiment [6] was more than 5 µg/mL. In experiment [7], the “IC50 TIP5-TERT/LT/ST/Ras^v12” value is 2.5 µg/mL. For the same compound, the “IC50 TIP5-TERT/E6E7/ST” value in experiment [8] is 2.5 µg/mL. The “IC50 BJ-TERT/LT/Ras^v12/ST” value in experiment [9] is 2.5 µg/mL. Besides, the “IC50 BJ-TERT/LT/ST/Ras^v12” value in experiment [10] is 2.5 µg/mL.
